From US20250353873A1, “COMPOUNDS AND METHODS FOR MODULATING APOE EXPRESSION” (Ionis Pharmaceuticals, Inc., priority 2024, published 2025)
Strand notation (5' to 3'): a small letter for the sugar, then the base; units joined by * are phosphorothioate-linked, units joined directly phosphodiester-linked; [ ] holds rarer units or linkages, { } end groups; capitals alone tell only the bases. [ms] = mesyl phosphoramidate linkage; k = constrained ethyl (cEt); [5mC] = 5-methylcytosine; d = 2'-deoxy (DNA)

Test system: human APOE RNA
Assay: Dose-dependent inhibition of human APOE RNA in HepG2 cells, electroporation, 50,000 cells per well, RT-PCR normalized to GAPDH (Example 4, Tables 8-10)
Assay type: cell-based
Details: 5 nM; HepG2, electroporation, 24-hour treatment
Procedure, shortened: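 Readout is percent APOE RNA versus untreated controls, measured by RT-PCR (primer probe set RTS3073) and normalized to human GAPDH. Modified oligonucleotides were delivered by electroporation at varying doses into HepG2 cells plated at 50,000 per well.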

Row | Substance | APOE RNA (% UTC)
1 | 1746800 (k[5mC]*dT[ms]kT*dG[ms]dG[ms]kT*dG[ms]dA[ms]dA[ms]dT*d[5mC]*dT*dT*dT*dA[ms]dT*kT*dA[ms]kA*kA; antisense) [Compound 1746800] | 108 % UTC

Same assay, conditions: 13 nM; HepG2, electroporation, 24-hour treatment

Row | Substance | APOE RNA (% UTC)
2 | 1746800 (k[5mC]*dT[ms]kT*dG[ms]dG[ms]kT*dG[ms]dA[ms]dA[ms]dT*d[5mC]*dT*dT*dT*dA[ms]dT*kT*dA[ms]kA*kA; antisense) [Compound 1746800] | 111 % UTC

Same assay, conditions: 33 nM; HepG2, electroporation, 24-hour treatment

Row | Substance | APOE RNA (% UTC)
3 | 1746800 (k[5mC]*dT[ms]kT*dG[ms]dG[ms]kT*dG[ms]dA[ms]dA[ms]dT*d[5mC]*dT*dT*dT*dA[ms]dT*kT*dA[ms]kA*kA; antisense) [Compound 1746800] | 137 % UTC

Same assay, conditions: 82 nM; HepG2, electroporation, 24-hour treatment

Row | Substance | APOE RNA (% UTC)
4 | 1746800 (k[5mC]*dT[ms]kT*dG[ms]dG[ms]kT*dG[ms]dA[ms]dA[ms]dT*d[5mC]*dT*dT*dT*dA[ms]dT*kT*dA[ms]kA*kA; antisense) [Compound 1746800] | 115 % UTC

Same assay, conditions: 205 nM; HepG2, electroporation, 24-hour treatment

Row | Substance | APOE RNA (% UTC)
5 | 1746800 (k[5mC]*dT[ms]kT*dG[ms]dG[ms]kT*dG[ms]dA[ms]dA[ms]dT*d[5mC]*dT*dT*dT*dA[ms]dT*kT*dA[ms]kA*kA; antisense) [Compound 1746800] | 97 % UTC

Same assay, conditions: 512 nM; HepG2, electroporation, 24-hour treatment

Row | Substance | APOE RNA (% UTC)
6 | 1746800 (k[5mC]*dT[ms]kT*dG[ms]dG[ms]kT*dG[ms]dA[ms]dA[ms]dT*d[5mC]*dT*dT*dT*dA[ms]dT*kT*dA[ms]kA*kA; antisense) [Compound 1746800] | 77 % UTC

Same assay, conditions: 1,280 nM; HepG2, electroporation, 24-hour treatment

Row | Substance | APOE RNA (% UTC)
7 | 1746800 (k[5mC]*dT[ms]kT*dG[ms]dG[ms]kT*dG[ms]dA[ms]dA[ms]dT*d[5mC]*dT*dT*dT*dA[ms]dT*kT*dA[ms]kA*kA; antisense) [Compound 1746800] | 87 % UTC

Same assay, conditions: 3,200 nM; HepG2, electroporation, 24-hour treatment

Row | Substance | APOE RNA (% UTC)
8 | 1746800 (k[5mC]*dT[ms]kT*dG[ms]dG[ms]kT*dG[ms]dA[ms]dA[ms]dT*d[5mC]*dT*dT*dT*dA[ms]dT*kT*dA[ms]kA*kA; antisense) [Compound 1746800] | 39 % UTC

Same assay, conditions: 8,000 nM; HepG2, electroporation, 24-hour treatment

Row | Substance | APOE RNA (% UTC)
9 | 1746800 (k[5mC]*dT[ms]kT*dG[ms]dG[ms]kT*dG[ms]dA[ms]dA[ms]dT*d[5mC]*dT*dT*dT*dA[ms]dT*kT*dA[ms]kA*kA; antisense) [Compound 1746800] | 35 % UTC

Same assay, conditions: 20,000 nM; HepG2, electroporation, 24-hour treatment

Row | Substance | APOE RNA (% UTC)
10 | 1746800 (k[5mC]*dT[ms]kT*dG[ms]dG[ms]kT*dG[ms]dA[ms]dA[ms]dT*d[5mC]*dT*dT*dT*dA[ms]dT*kT*dA[ms]kA*kA; antisense) [Compound 1746800] | 8 % UTC

Same assay, conditions: HepG2, electroporation, 24-hour treatment

Row | Substance | IC50
11 | 1746800 (k[5mC]*dT[ms]kT*dG[ms]dG[ms]kT*dG[ms]dA[ms]dA[ms]dT*d[5mC]*dT*dT*dT*dA[ms]dT*kT*dA[ms]kA*kA; antisense) [Compound 1746800] | 3.27 µM

Test system: human APOE RNA
Assay: Activity in APOE C57BL/6NTac-Apoeem7250 knock-in mice, single ICV bolus, 4 weeks (Example 10)
Assay type: in vivo
Details: cortex; single ICV bolus 300 μg; 4 weeks post treatment; normalized to mouse Ppia
Procedure, shortened: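 Human APOE RNA, quantified by real-time RT-PCR with RTS3073 and normalized to mouse Ppia, was read in cortical brain and spinal cord 4 weeks post dosing. Dosing was a single ICV bolus of 300 μg per knock-in mouse; values are % of PBS-treated animals.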

Row | Substance | APOE RNA (% control) Cortex
12 | 1746800 (k[5mC]*dT[ms]kT*dG[ms]dG[ms]kT*dG[ms]dA[ms]dA[ms]dT*d[5mC]*dT*dT*dT*dA[ms]dT*kT*dA[ms]kA*kA; antisense) [Compound 1746800] | 41 % control

Same assay, conditions: spinal cord; single ICV bolus 300 μg; 4 weeks post treatment; normalized to mouse Ppia

Row | Substance | APOE RNA (% control) Spinal Cord
13 | 1746800 (k[5mC]*dT[ms]kT*dG[ms]dG[ms]kT*dG[ms]dA[ms]dA[ms]dT*d[5mC]*dT*dT*dT*dA[ms]dT*kT*dA[ms]kA*kA; antisense) [Compound 1746800] | 40 % control

Test system: human APOE RNA
Assay: Activity in APOE C57BL/6NTac-Apoeem7250 knock-in mice, single ICV bolus, 8 weeks (Example 11)
Assay type: in vivo
Details: cortex; single ICV bolus 300 μg; 8 weeks post treatment; normalized to mouse Ppia
Procedure, shortened: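 Cortical and spinal cord human APOE RNA quantified by RT-qPCR 8 weeks after a single 300 μg ICV dose in knock-in mice, Ppia-normalized. Values are percent of levels in PBS-treated animals.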

Row | Substance | APOE RNA (% control) Cortex
14 | 1746800 (k[5mC]*dT[ms]kT*dG[ms]dG[ms]kT*dG[ms]dA[ms]dA[ms]dT*d[5mC]*dT*dT*dT*dA[ms]dT*kT*dA[ms]kA*kA; antisense) [Compound 1746800] | 40 % control

Same assay, conditions: spinal cord; single ICV bolus 300 μg; 8 weeks post treatment; normalized to mouse Ppia

Row | Substance | APOE RNA (% control) Spinal Cord
15 | 1746800 (k[5mC]*dT[ms]kT*dG[ms]dG[ms]kT*dG[ms]dA[ms]dA[ms]dT*d[5mC]*dT*dT*dT*dA[ms]dT*kT*dA[ms]kA*kA; antisense) [Compound 1746800] | 30 % control

Test system: human APOE RNA
Assay: Duration of action study in APOE C57BL/6NTac-Apoeem7250 knock-in mice (Example 16)
Assay type: in vivo
Details: cortex; 300 μg ICV; 112 days post-dose
Procedure: Modified oligonucleotides described above were tested in the APOE C57BL/6NTac-Apoeem7250 knock-in mouse model described above.
APOE C57BL/6NTac-Apoeem7250 knock-in mice were divided into groups of 2-4 mice each. Each mouse received a single intracerebroventricular (ICV) bolus of 300 μg of modified oligonucleotide. A group of 2-4 mice received a single ICV bolus with PBS as a negative control.
Mice were sacrificed at various timepoints as indicated in the table below and RNA was extracted from cortical brain tissue and spinal cord for quantitative real-time RT-PCR analysis of RNA expression of APOE using primer probe set RTS3073 (described herein above). APOE RNA levels were normalized to mouse Ppia. Mouse Ppia was amplified using primer probe set m_cyclo24 (described herein above). Results are presented as percent human APOE RNA relative to the amount of human APOE RNA in PBS treated animals, (% control). Each experiment is identified in separate tables below.

Row | Substance | APOE RNA (% control) Cortex
16 | 1746800 (k[5mC]*dT[ms]kT*dG[ms]dG[ms]kT*dG[ms]dA[ms]dA[ms]dT*d[5mC]*dT*dT*dT*dA[ms]dT*kT*dA[ms]kA*kA; antisense) [Compound 1746800] | 52 % control

Same assay, conditions: cortex; 300 μg ICV; 140 days post-dose

Row | Substance | APOE RNA (% control) Cortex
17 | 1746800 (k[5mC]*dT[ms]kT*dG[ms]dG[ms]kT*dG[ms]dA[ms]dA[ms]dT*d[5mC]*dT*dT*dT*dA[ms]dT*kT*dA[ms]kA*kA; antisense) [Compound 1746800] | 75 % control

Same assay, conditions: spinal cord; 300 μg ICV; 112 days post-dose

Row | Substance | APOE RNA (% control) Spinal Cord
18 | 1746800 (k[5mC]*dT[ms]kT*dG[ms]dG[ms]kT*dG[ms]dA[ms]dA[ms]dT*d[5mC]*dT*dT*dT*dA[ms]dT*kT*dA[ms]kA*kA; antisense) [Compound 1746800] | 88 % control

Same assay, conditions: spinal cord; 300 μg ICV; 140 days post-dose

Row | Substance | APOE RNA (% control) Spinal Cord
19 | 1746800 (k[5mC]*dT[ms]kT*dG[ms]dG[ms]kT*dG[ms]dA[ms]dA[ms]dT*d[5mC]*dT*dT*dT*dA[ms]dT*kT*dA[ms]kA*kA; antisense) [Compound 1746800] | 58 % control
